We go through 1 compound from US9427428B2, “Benzimidazole-imidazole derivatives” (Janssen Sciences Ireland UC, priority 2009, dated 2016).

Usually CC50 stands for the concentration that lowers cell viability or growth by half. Low readings indicate harm at low concentration, high ones better tolerance by the cells. The EC50 is the concentration needed to bring the measured effect to its halfway point.

Data set [1] can be described thus: Counterscreen MT4-LTR-Luc. The data set is classed as cell-based. The conditions noted are these: human. An excerpt:
(§1) Counterscreen cell lines included a Huh-7 hepatoma cell line containing a human cytomegalovirus major immediate-early promoter-Luc construct (Huh7-CMV-Luc) and an MT4 T-cell line containing a long terminal repeat-Luc reporter (MT4-LTR-Luc).
On the technique in general: A counterscreen serves to expose hits that act by an unwanted route or on another target.

Data set [2] deals with HCV genotype 1b replicon NS5A L31M. The data set is described as follows: Transient HCV 1b replicon, NS5A mutant L31M. The data set is classed as cell-based. The conditions noted are these: Hepatitis C virus, read-out: EC50 L31M. An excerpt:
(§2) In a transient set-up, a Huh-7 lunet hepatoma cell line was transiently transfected with an autonomously replicating RNA encoding a bi-cistronic expression construct. This construct comprises a firefly luciferase reporter gene preceding the NS3-NS5B subgenomic region of HCV (genotype 1a H77 or 1b Con1). Translation of the HCV subgenomic region is mediated by an internal ribosome entry site of encephalomyocarditis virus. The construct is furthermore flanked by 5′ and 3′ untranslated regions of HCV (genotype 1a H77 or 1b Con 1, respectively), which allow for replication of the RNA.
(§3) In addition to the wild-type constructs, site-directed mutations were introduced into the transient HCV genotype 1b replicon in the gene encoding for the non-structural protein 5A (NS5A). More precisely, amino acid residues 28, 30, 31 and 93 in NS5A were independently altered.
(§4) Cells were plated in 384 well plates in the presence of test and control compounds, which were added in various concentrations. Following an incubation of two days, replication of the HCV subgenomic replicon RNA was measured by assaying luciferase activity (using standard luciferase assay substrates and reagents and a Perkin Elmer ViewLux™ ultraHTS microplate imager). HCV subgenomic replicon containing cells in the control cultures have high luciferase expression in the absence of any inhibitor. The inhibitory activity of the compound was monitored, enabling a dose-response curve for each test compound. EC50 values were then calculated, which represent the amount of compound required to decrease the level of detected luciferase activity by 50%, or more specifically, to reduce the ability of the genetically linked HCV subgenomic RNA to replicate.
(In general: In antiviral work, replicon cells carry a viral genome segment that copies itself.)

In data set [3] the test system is HCV genotype 1b replicon NS5A L31F. The data set is described as follows: Transient HCV 1b replicon, NS5A mutant L31F. The conditions noted are these: Hepatitis C virus, read-out: EC50 L31F. In kind it is cell-based.
Description: as §2, §3, §4

In data set [4] the test system is HCV genotype 1b replicon NS5A R30H. The data set is described as follows: Transient HCV 1b replicon, NS5A mutant R30H. In kind it is cell-based. The conditions noted are these: Hepatitis C virus, read-out: EC50 R30H.
Description: as §2, §3, §4

Data set [5] relates to HCV type 1b replicon (Huh-7 luc/neo cells). The data set is described as follows: HCV replicon assay, stable transfection (Huh-Luc, luciferase). The data set is classed as cell-based. The conditions noted are these: Hepatitis C virus, Huh-7, 72 h, three days incubation, average of all tests. The source says: The compounds of formula (I) were examined for inhibitory activity in the HCV replicon. This cellular assay is based on a bicistronic expression construct, as described by Lohmann et al. (Science (1999) 285: 110-113; Journal of Virology (2003) 77: 3007-3019) with modifications described by Krieger et al. (Journal of Virology (2001) 75: 4614-4624), and Lohmann et al. (Journal of Virology (2003) 77: 3007-3019) for genotype 1b and by Yi et al. (Journal of Virology (2004) 78: 7904-7915) for genotype 1a, in a multi-target screening strategy.
The method was as follows. The assay utilized the stably transfected cell line Huh-7 luc/neo (hereafter referred to as Huh-Luc). This cell line harbors an RNA encoding a bicistronic expression construct comprising the wild type NS3-NS5B regions of HCV type 1b translated from an Internal Ribosome Entry Site (IRES) from encephalomyocarditis virus (EMCV), preceded by a reporter portion (FfL-luciferase), and a selectable marker portion (neoR, neomycine phosphotransferase). The construct is flanked by 5′ and 3′ NTRs (non-translated regions) from HCV type 1b. Continued culture of the replicon cells in the presence of G418 (neoR) is dependent on the replication of the HCV RNA. The stably transfected replicon cells that replicate HCV RNA autonomously and to high levels, encoding inter alia luciferase, were used for screening the antiviral compounds.
The replicon cells were plated in 384 well plates in the presence of the test and control compounds which were added in various concentrations. Following an incubation of three days, HCV replication was measured by assaying luciferase activity (using standard luciferase assay substrates and reagents and a Perkin Elmer ViewLux™ ultraHTS microplate imager). Replicon cells in the control cultures have high luciferase expression in the absence of any inhibitor. The inhibitory activity of the compound was monitored on the Huh-Luc cells, enabling a dose-response curve for each test compound. EC50 values were then calculated, which represent the amount of compound required to decrease the level of detected luciferase activity by 50%, or more specifically, to reduce the ability of the genetically linked HCV replicon RNA to replicate.
Where a compound of formula (I) was tested more than once in the replicon assay, the average of all test results is given in this Table 2.

For data set [6], the system named is HCV genotype 1a H77 replicon (Huh-7 lunet cells). The data set is described as follows: HCV replicon assay, transient transfection, genotype 1a. The conditions noted are these: Hepatitis C virus, 48 h, genotype 1a H77, two days incubation, luciferase. In kind it is cell-based.
Description: as §2, §4
(§5) Where a compound of formula (I) was tested more than once in the transient replicon assay, the average of all test results is given in Table 3.

Data set [7] in a line: Pharmacokinetic analysis after single oral administration, liver concentration. The data set is classed as in vivo. The conditions noted are these: male Sprague-Dawley rats, 10 mg/kg oral, solution in PEG400. Here is the method:
Compounds were dosed orally as a solution in PEG400 to male Sprague-Dawley rats at a dose level of 10 mg/kg. At serial time points, after dosing, the animals were sacrificed and liver samples collected. All samples were analyzed using a qualified research LC-MS/MS method to determine the concentration of the tested compounds in liver. Non-compartmental analysis using the lin/log trapezoidal rule was performed using WinNonlin™ Professional (Version 5.2.1).

Data set [8] deals with HCV genotype 1b Con1 replicon (Huh-7 lunet cells). Nature of the data set: HCV replicon assay, transient transfection, genotype 1b. The conditions noted are these: Hepatitis C virus, 48 h, genotype 1b Con1, two days incubation, luciferase. In kind it is cell-based.
Description: as §2, §4, §5

The test system of data set [9] is HCV genotype 1b replicon NS5A L31V. The data set is described as follows: Transient HCV 1b replicon, NS5A mutant L31V. In kind it is cell-based. The conditions noted are these: Hepatitis C virus, read-out: EC50 L31V.
Description: as §2, §3, §4

The test system of data set [10] is HCV genotype 1b replicon NS5A Y93H. Nature of the data set: Transient HCV 1b replicon, NS5A mutant Y93H. In kind it is cell-based. The conditions noted are these: Hepatitis C virus, read-out: EC50 Y93H.
Description: as §2, §3, §4

Data set [11] deals with HCV genotype 1b replicon NS5A L28T. The data set is described as follows: Transient HCV 1b replicon, NS5A mutant L28T. In kind it is cell-based. The conditions noted are these: Hepatitis C virus, read-out: EC50 L28T.
Description: as §2, §3, §4

The test system of data set [12] is HCV genotype 1b replicon NS5A Y93C. Nature of the data set: Transient HCV 1b replicon, NS5A mutant Y93C. The data set is classed as cell-based. The conditions noted are these: Hepatitis C virus, read-out: EC50 Y93C.
Description: as §2, §3, §4

A short description of data set [13]: Counterscreen Huh7-CMV-Luc. The data set is classed as cell-based. The conditions noted are these: human.
Description: as §1

For the compound `CC[C@H](C)[C@H](NC(=O)OC)C(=O)N1CCC[C@H]1c1nc2cc(-c3ccc4cc(-c5cnc([C@@H]6CCCN6C(=O)[C@@H](NC(=O)OC)[C@@H](C)OC)[nH]5)ccc4c3)ccc2[nH]1` [Compound 18], the figures for the 50% cytotoxic concentration (CC50) in data set [1] and in data set [13] were 9680 nM and 8680 nM, respectively. For the same compound, the 50% effective concentration (EC50) in data set [2] was determined as 0.054 nM; in data set [3], 0.005 nM; in data set [4], 0.039 nM; in [5] it was 0.003 nM; in data set [6], 0.018 nM; in data set [8] it was 0.004 nM. The EC50 was 0.052 nM in data set [9], 0.08 nM in [10], 0.041 nM in data set [11] and 0.003 nM in [12]. Further, the “Liver AUC” value in [7] was determined as 14091 ng·h/g.
